Experimental data published in PubChem BioAssay AID256 (DTP/NCI, 2004).
Several values for one entry are separate records, joined by “and”; a condition that tells them apart may be missing. Identical values can stand only once. Toxic doses and inconclusive results are not listed.

System: CD2F1 mice, L1210 leukemia ip, survival T/C
Assay: NCI In Vivo Anticancer Drug Screen. Data for tumor model L1210 Leukemia (intraperitoneal) in CD2F1 (CDF1) mice
Conditions: higher = longer survival
How it was run: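 Transplantable tumor in mice; compound-treated vs vehicle-treated groups. Read-out = treated/control ratio of the measured endpoint.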

[1] = endpoint: mean survival time, dose: 100.0 mg/kg/injection, schedule: Q01DX001 (ip), vehicle: saline with Tween-80
[2] = endpoint: mean survival time, dose: 200.0 mg/kg/injection, schedule: Q01DX001 (ip), vehicle: saline with Tween-80
[3] = endpoint: mean survival time, dose: 400.0 mg/kg/injection, schedule: Q01DX001 (ip), vehicle: saline with Tween-80
[4] = endpoint: mean survival time, dose: 100.0 mg/kg/injection, schedule: Q01DX009 (ip), vehicle: saline with Tween-80
[5] = endpoint: mean survival time, dose: 200.0 mg/kg/injection, schedule: Q01DX009 (ip), vehicle: saline with Tween-80
[6] = endpoint: mean survival time, dose: 400.0 mg/kg/injection, schedule: Q01DX009 (ip), vehicle: saline with Tween-80
[7] = endpoint: mean survival time, dose: 100.0 mg/kg/injection, schedule: Q04DX003 (ip), vehicle: saline with Tween-80
[8] = endpoint: mean survival time, dose: 200.0 mg/kg/injection, schedule: Q04DX003 (ip), vehicle: saline with Tween-80
[9] = endpoint: mean survival time, dose: 400.0 mg/kg/injection, schedule: Q04DX003 (ip), vehicle: saline with Tween-80
[10] = endpoint: mean survival time, dose: 100.0 mg/kg/injection, schedule: Q01DX001 (ip), vehicle: saline
[11] = endpoint: mean survival time, dose: 200.0 mg/kg/injection, schedule: Q01DX001 (ip), vehicle: saline
[12] = endpoint: mean survival time, dose: 400.0 mg/kg/injection, schedule: Q01DX001 (ip), vehicle: saline
[13] = endpoint: mean survival time, dose: 50.0 mg/kg/injection, schedule: Q01DX009 (ip), vehicle: saline with Tween-80

[NH2-].[NH2-].[NH2-].[NH2-].[NH2-].[NH2-].[Ru+6]
T/C (endpoint: mean survival time, dose: 12.5 mg/kg/injection, schedule: Q04DX002 (ip), vehicle: saline): 86 % of control

C[N+](C)(Cc1ccccc1)C1c2ccccc2-c2ccc(Cl)cc21 (configuration not stated)
T/C (endpoint: mean survival time, dose: 50.0 mg/kg/injection, schedule: Q04DX002 (ip), vehicle: saline with Tween-80): 103 % of control

CC1(C)OC2CC3CC(OC3=O)C2O1 (configuration not stated)
T/C [1]: 107 % of control | T/C [2]: 97 % of control | T/C [3]: 107 % of control

NC(C(=O)O)C(N)C(=O)O (configuration not stated)
T/C [4]: 94 % of control | T/C [5]: 96 % of control | T/C [6]: 96 % of control

N#CCCn1c2ccccc2c2ccccc21
T/C [7]: 98 % of control | T/C [8]: 94 % of control | T/C [9]: 94 % of control

Cc1cc(N(CCI)CCI)ccc1N=Nc1ccccc1C(=O)O
T/C (endpoint: mean survival time, dose: 25.0 mg/kg/injection, schedule: Q01DX009 (ip), vehicle: Klucel (hydroxypropylcellulose) (HPC)): 122 % of control | T/C (endpoint: mean survival time, dose: 50.0 mg/kg/injection, schedule: Q01DX009 (ip), vehicle: Klucel (hydroxypropylcellulose) (HPC)): 122 % of control | T/C (endpoint: mean survival time, dose: 100.0 mg/kg/injection, schedule: Q01DX009 (ip), vehicle: Klucel (hydroxypropylcellulose) (HPC)): 122 % of control

c1ccc2nc(C3CO3)cnc2c1 (configuration not stated)
T/C (endpoint: mean survival time, dose: 50.0 mg/kg/injection, schedule: Q04DX003 (ip), vehicle: saline with Tween-80): 100 % of control | T/C [7]: 96 % of control | T/C [8]: 97 % of control

CCC1(O)C(=O)OCc2c1cc1n(c2=O)Cc2cc3cc(C)ccc3nc2-1 (configuration not stated)
T/C (endpoint: median survival time, dose: 10.0 mg/kg/injection, schedule: Q04DX002 (ip), vehicle: saline with Tween-80): 151 % of control and 207 % of control | T/C (endpoint: median survival time, dose: 20.0 mg/kg/injection, schedule: Q04DX002 (ip), vehicle: saline with Tween-80): 151 % of control and 192 % of control | T/C (endpoint: median survival time, dose: 40.0 mg/kg/injection, schedule: Q04DX002 (ip), vehicle: saline with Tween-80): 162 % of control and 195 % of control | T/C (endpoint: median survival time, dose: 80.0 mg/kg/injection, schedule: Q04DX002 (ip), vehicle: saline with Tween-80): 186 % of control | T/C (endpoint: median survival time, dose: 160.0 mg/kg/injection, schedule: Q04DX002 (ip), vehicle: saline with Tween-80): 114 % of control

COC(CCC#N)c1ccc(Cl)cc1 (configuration not stated)
T/C [4]: 95 % of control | T/C [7]: 97 % of control | T/C [5]: 101 % of control | T/C [8]: 102 % of control | T/C [6]: 96 % of control | T/C [9]: 98 % of control

CC(=O)Nc1ccc2c(c1)C(P(=O)(OC(C)C)OC(C)C)c1ccccc1-2 (configuration not stated)
T/C [7]: 95 % of control | T/C [8]: 95 % of control | T/C [9]: 92 % of control

CC(C)OC(=O)Nc1cccc(Cl)c1F
T/C [1]: 96 % of control | T/C [2]: 95 % of control | T/C [3]: 96 % of control

Nc1ccc(N=Nc2ccc(S(=O)(=O)O)cc2)cc1
T/C [7]: 97 % of control | T/C [8]: 93 % of control | T/C [9]: 97 % of control

O=NC1C2C=CC(C2)C1Cl (configuration not stated)
T/C [10]: 93 % of control | T/C [11]: 88 % of control | T/C [12]: 96 % of control

CC(=O)OC1COC(n2cnc3c(N)ncnc32)C(OC(C)=O)C1OC(C)=O (configuration not stated)
T/C [10]: 108 % of control | T/C [11]: 101 % of control | T/C [12]: 90 % of control

CCS(=O)(=O)C(CCC#N)(CCC#N)S(=O)(=O)CC
T/C [10]: 95 % of control | T/C [11]: 103 % of control

CCC1CC2CN(CCc3c([nH]c4ccccc34)C(C(=O)OC)(c3cc4c(cc3OC)N(C)C3C(O)(C(=O)OC)C(OC(C)=O)C5(CC)C=CCN6CCC43C65)C2)C1 (configuration not stated)
T/C (endpoint: median survival time, dose: 0.06 mg/kg/injection, schedule: Q01DX009 (ip), vehicle: saline): 102 % of control | T/C (endpoint: median survival time, dose: 0.13 mg/kg/injection, schedule: Q01DX009 (ip), vehicle: saline): 103 % of control | T/C (endpoint: median survival time, dose: 0.25 mg/kg/injection, schedule: Q01DX009 (ip), vehicle: saline): 105 % of control | T/C (endpoint: median survival time, dose: 0.5 mg/kg/injection, schedule: Q01DX009 (ip), vehicle: saline): 116 % of control | T/C (endpoint: median survival time, dose: 0.5 mg/kg/injection, schedule: Q01DX009 (ip), vehicle: water): 113 % of control | T/C (endpoint: median survival time, dose: 1.0 mg/kg/injection, schedule: Q01DX009 (ip), vehicle: saline): 120 % of control | T/C (endpoint: median survival time, dose: 1.0 mg/kg/injection, schedule: Q01DX009 (ip), vehicle: water): 116 % of control | T/C (endpoint: median survival time, dose: 2.0 mg/kg/injection, schedule: Q01DX009 (ip), vehicle: water): 104 % of control

CC(C)(C)c1cc(CN2CCCC(O)C2)c(O)c(-c2ccccc2)c1 (configuration not stated)
T/C (endpoint: mean survival time, dose: 50.0 mg/kg/injection, schedule: Q01DX009 (ip), vehicle: saline): 107 % of control | T/C (endpoint: mean survival time, dose: 100.0 mg/kg/injection, schedule: Q01DX009 (ip), vehicle: saline): 104 % of control

O=C(O)CC[P+](c1ccccc1)(c1ccccc1)c1ccccc1
T/C [4]: 95 % of control | T/C [5]: 92 % of control | T/C [6]: 89 % of control

COc1ccc(C2N(C)CCCN2C)c(OC)c1
T/C (endpoint: mean survival time, dose: 6.25 mg/kg/injection, schedule: Q01DX009 (ip), vehicle: saline sonified): 103 % of control | T/C (endpoint: mean survival time, dose: 6.25 mg/kg/injection, schedule: Q04DX003 (ip), vehicle: saline sonified): 101 % of control | T/C (endpoint: mean survival time, dose: 12.5 mg/kg/injection, schedule: Q01DX009 (ip), vehicle: saline sonified): 103 % of control | T/C (endpoint: mean survival time, dose: 12.5 mg/kg/injection, schedule: Q04DX003 (ip), vehicle: saline sonified): 108 % of control | T/C (endpoint: mean survival time, dose: 25.0 mg/kg/injection, schedule: Q01DX009 (ip), vehicle: saline sonified): 98 % of control | T/C (endpoint: mean survival time, dose: 25.0 mg/kg/injection, schedule: Q04DX003 (ip), vehicle: saline sonified): 100 % of control

Cc1c(Cl)ccc(Cl)c1Cl
T/C (endpoint: mean survival time, dose: 100.0 mg/kg/injection, schedule: Q01DX009 (ip), vehicle: saline sonified): 105 % of control | T/C (endpoint: mean survival time, dose: 100.0 mg/kg/injection, schedule: Q04DX003 (ip), vehicle: saline sonified): 104 % of control | T/C (endpoint: mean survival time, dose: 200.0 mg/kg/injection, schedule: Q01DX009 (ip), vehicle: saline sonified): 100 % of control | T/C (endpoint: mean survival time, dose: 200.0 mg/kg/injection, schedule: Q04DX003 (ip), vehicle: saline sonified): 101 % of control | T/C (endpoint: mean survival time, dose: 400.0 mg/kg/injection, schedule: Q01DX009 (ip), vehicle: saline sonified): 102 % of control | T/C (endpoint: mean survival time, dose: 400.0 mg/kg/injection, schedule: Q04DX003 (ip), vehicle: saline sonified): 106 % of control

CC(=O)c1cc(C)[nH]c1C
T/C [13]: 101 % of control | T/C [4]: 100 % of control | T/C [7]: 102 % of control | T/C [5]: 103 % of control | T/C [8]: 96 % of control | T/C (endpoint: median survival time, dose: 100.0 mg/kg/injection, schedule: Q01DX001 (ip), vehicle: saline with Tween-80): 100 % of control | T/C (endpoint: median survival time, dose: 200.0 mg/kg/injection, schedule: Q01DX001 (ip), vehicle: saline with Tween-80): 100 % of control

CC1=CC(=NN=c2cc(C)n([O-])c(C)c2)C=C(C)[N+]1=O
T/C (endpoint: mean survival time, dose: 12.5 mg/kg/injection, schedule: Q01DX009 (ip), vehicle: saline with Tween-80): 104 % of control | T/C (endpoint: mean survival time, dose: 12.5 mg/kg/injection, schedule: Q01DX009 (ip), vehicle: suspension in saline): 108 % of control | T/C (endpoint: mean survival time, dose: 25.0 mg/kg/injection, schedule: Q01DX009 (ip), vehicle: saline with Tween-80): 108 % of control | T/C (endpoint: mean survival time, dose: 25.0 mg/kg/injection, schedule: Q01DX009 (ip), vehicle: suspension in saline): 110 % of control | T/C [13]: 101 % of control | T/C (endpoint: mean survival time, dose: 50.0 mg/kg/injection, schedule: Q01DX009 (ip), vehicle: suspension in saline): 106 % of control | T/C (endpoint: mean survival time, dose: 100.0 mg/kg/injection, schedule: Q01DX009 (ip), vehicle: suspension in saline): 104 % of control | T/C [5]: 106 % of control | T/C (endpoint: mean survival time, dose: 200.0 mg/kg/injection, schedule: Q01DX009 (ip), vehicle: suspension in saline): 166 % of control

CCOC(=O)Nc1cc(NCCc2ccccc2)c2[nH]cnc2n1
T/C (endpoint: mean survival time, dose: 100.0 mg/kg/injection, schedule: Q01DX001 (ip), vehicle: Klucel (hydroxypropylcellulose) (HPC)): 90 % of control | T/C (endpoint: mean survival time, dose: 200.0 mg/kg/injection, schedule: Q01DX001 (ip), vehicle: Klucel (hydroxypropylcellulose) (HPC)): 87 % of control | T/C (endpoint: mean survival time, dose: 400.0 mg/kg/injection, schedule: Q01DX001 (ip), vehicle: Klucel (hydroxypropylcellulose) (HPC)): 95 % of control

Oc1ccc2ccccc2c1Cl
T/C [7]: 104 % of control | T/C [8]: 112 % of control | T/C [9]: 108 % of control
